Results as given in patent US10611759B2, “Glutaminase inhibitors” (Rhizen Pharmaceuticals SA, priority 2014, dated 2020).
Like-named read-outs stand apart in the source and are kept apart here.

Key:
[1] = biological target: T1, Glutaminase(Brain) (Mus musculus, UniProt D3Z7P3); assay: Glutaminase enzyme activity using glutaminase enzyme from mice brain/kidney homogenate (Nessler's reagent, ammonia); assay type: biochemical; details: for inhibition at 0.1 µM: read-out: Glutaminase(Brain) activity % inhibition 0.1 μM; for inhibition at 1 µM: read-out: Glutaminase(Brain) activity % inhibition @1 μM
T1 sequence (D3Z7P3 55-674): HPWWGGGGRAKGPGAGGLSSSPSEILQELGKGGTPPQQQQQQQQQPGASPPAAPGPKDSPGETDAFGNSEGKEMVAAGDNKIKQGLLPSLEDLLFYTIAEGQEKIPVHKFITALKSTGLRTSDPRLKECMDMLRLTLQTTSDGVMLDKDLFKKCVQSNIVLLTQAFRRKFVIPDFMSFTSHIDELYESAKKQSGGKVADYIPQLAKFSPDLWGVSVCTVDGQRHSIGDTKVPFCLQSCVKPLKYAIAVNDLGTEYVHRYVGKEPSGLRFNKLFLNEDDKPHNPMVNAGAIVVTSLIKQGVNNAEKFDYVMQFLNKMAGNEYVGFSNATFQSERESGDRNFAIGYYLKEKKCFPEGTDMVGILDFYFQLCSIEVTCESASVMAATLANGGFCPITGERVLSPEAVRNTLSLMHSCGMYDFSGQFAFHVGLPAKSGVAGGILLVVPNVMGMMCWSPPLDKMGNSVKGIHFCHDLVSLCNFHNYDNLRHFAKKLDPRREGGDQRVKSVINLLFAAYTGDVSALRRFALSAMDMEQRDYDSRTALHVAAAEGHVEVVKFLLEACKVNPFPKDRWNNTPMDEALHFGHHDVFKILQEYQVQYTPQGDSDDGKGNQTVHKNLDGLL
Description: Assay 3: Determination of Glutaminase Enzyme Activity Using Glutaminase Enzyme from Mice Brain/Kidney
Step 1: Preparation of Tissue Homogenates:
Male Balb/c mice were administered 0.28 M ammonium chloride in drinking water for 7 days. The animals were sacrificed and brain/kidney organs collected on dry ice. […] The tissue was homogenized and supernatants were stored at −80° C. until the enzyme assay was performed.
Aim: Compounds were assessed for their ability to inhibit the enzymatic activity of L-glutaminase present in mice brain/kidney homogenate.
Protocol: The assay was performed using a colorimetric method using Nessler's Reagent by quantifying the amount of ammonia formed as a by product during the enzymatic conversion of L-glutamine to glutamate. In the routine assay, 16 μl of tissue homogenate is added to 33 μl of Tris-Hcl phosphate buffer (pH 8) along with 1 μl of DMSO/test compound containing the desired final concentration and vortexed briefly. 50 μl of 20 mM L-glutamine Tris buffer is added to start the reaction and incubated for 15 minutes at 37° C. The ammonia formed is detected by adding 20 μl of reaction mixture to cold water in a 96 well plate followed by 20 μl of Nessler's reagent. The colour developed is measured at 450 nm. Data Analysis: Activity of the test compound is reported as % inhibition and the data is analyzed using Graphpad Prism (Graphpad software; San Diego Calif.) for IC50 determination.

[2] = test system: A549; assay: In vitro cell proliferation assay (MTT), A549; assay type: cell-based; details: Homo sapiens, 72 hours
Description: (§1) Assay 4: In Vitro Cell Proliferation Assay in Cancer Cell Lines
(§2) Growth inhibition assays were carried out using 10% FBS supplemented media. Cells were seeded at a concentration of 5000-20,000 cells/well in a 96-well plate. Test compounds at a concentration range from 0.01 to 10000 nM were added after 24 hours. Growth was assessed using the 3-[4,5-dimethylthiazol-2-yl]-2,5-diphenyltetrazolium bromide (MTT) dye reduction test at 0 h (prior to the addition of the test compound) and 72 hours after the addition of test compound. Absorbance was read on a Fluostar Optima (BMG Labtech, Germany) at a wave length of 450 nm. Data were analysed using GraphPad Prism and percent inhibition due to the test compound compared to the control was calculated accordingly.

[3] = test system: HCT116; assay: In vitro cell proliferation assay (MTT), HCT116; assay type: cell-based; details: Homo sapiens, HCT-116, 72 hours
Description: as §1, §2

[4] = test system: Daudi; assay: In vitro cell proliferation assay (MTT), Daudi; assay type: cell-based; details: Homo sapiens, 72 hours
Description: as §1, §2

[5] = test system: Rajii; assay: In vitro cell proliferation assay (MTT), Rajii; assay type: cell-based; details: 72 hours
Description: as §1, §2

[6] = test system: MDA-MB-231; assay: In vitro cell proliferation assay (MTT), MDA-MB-231; assay type: cell-based; details: Homo sapiens, 72 hours
Description: as §1, §2

SMILES | inhibition at 0.1 µM [1] [%] | inhibition at 1 µM [1] [%] | GI50 [2] [nM] | GI50 [3] [nM] | GI50 [4] [nM] | GI50 [5] [nM] | inhibition at 0.1 µM ([1]; 0.1 μM, mice brain homogenate) [%] | inhibition at 1 µM ([1]; 1 μM, mice brain homogenate) [%] | melting point [°C] | GI50 [6] [nM]
O=C(Cc1cccc(OC(F)(F)F)c1)Nc1ccc(N2CCC(c3nnc(NC(=O)Cc4ccccn4)s3)CC2)nn1 [Example-8, 2-(pyridin-2-yl)-N-(5-(1-(6-(2-(3-(trifluoromethoxy)phenyl)acetamido)pyridazin-3-yl)piperidin-4-yl)-1,3,4-thiadiazol-2-yl)acetamide] | 75 to 100 | 75 to 100 | 100 to 250 | 250 to 500 | < 100 | < 100 |  |  |  | 
O=C(Cc1ccccn1)Nc1ccc(N2CCCC(c3nnc(NC(=O)Cc4cccc(OC(F)(F)F)c4)s3)C2)cn1 (stereo not drawn) [Example-7, 2-(Pyridin-2-yl)-N-(5-(3-(5-(2-(3-(trifluoromethoxy)phenyl)acetamido)-1,3,4-thiadiazol-2-yl)piperidin-1-yl)pyridin-2-yl)acetamide] |  |  |  |  |  |  | < 25 | < 25 | 151 to 153 | 
O=C(Cc1ccccc1Cl)Nc1ccc(N2CCC(c3nnc(NC(=O)Cc4ccccn4)s3)CC2)nn1 [Example-12, 2-(2-Chlorophenyl)-N-(6-(4-(5-(2-(pyridin-2-yl)acetamido)-1,3,4-thiadiazol-2-yl)piperidin-1-yl)pyridazin-3-yl)acetamide] |  |  |  |  |  |  | 50 to 75 | 75 to 100 |  | < 100
O=C(Cc1cccc(OC(F)(F)F)c1)Nc1ccc(N2CCCC(c3nnc(NC(=O)Cc4ccccn4)s3)C2)nn1 (stereo not drawn) [Example-9, 2-(Pyridin-2-yl)-N-(5-(1-(6-(2-(3-(trifluoromethoxy)phenyl)acetamido)pyridazin-3-yl)piperidin-3-yl)-1,3,4-thiadiazol-2-yl)acetamide] | 50 to 75 | 75 to 100 |  |  |  |  |  |  |  | 100 to 250

More lines, now with the values ahead:

inhibition at 0.1 µM [1] [%] | inhibition at 1 µM [1] [%] | GI50 [2] [nM] | GI50 [3] [nM] | GI50 [4] [nM] | GI50 [5] [nM] | inhibition at 0.1 µM ([1]; 0.1 μM, mice brain homogenate) [%] | inhibition at 1 µM ([1]; 1 μM, mice brain homogenate) [%] | melting point [°C] | GI50 [6] [nM] | SMILES
 |  |  |  |  |  | 50 to 75 | 75 to 100 |  | < 100 | O=C(Cc1cccc(OC(F)(F)F)c1)Nc1ccc(N2CCC(c3nnc(NC(=O)Cc4cnccn4)s3)CC2)nn1 [Example-15, 2-(Pyrazin-2-yl)-N-(5-(1-(6-(2-(3-(trifluoromethoxy)phenyl)acetamido)pyridazin-3-yl)piperidin-4-yl)-1,3,4-thiadiazol-2-yl)acetamide]
 |  |  |  |  |  | 75 to 100 | 75 to 100 |  | < 100 | O=C(Cc1cccnc1)Nc1ccc(N2CCC(c3nnc(NC(=O)Cc4cccc(OC(F)(F)F)c4)s3)CC2)nn1 [Example-18, 2-(Pyridin-3-yl)-N-(6-(4-(5-(2-(3-(trifluoromethoxy)phenyl)acetamido)-1,3,4-thiadiazol-2-yl)piperidin-1-yl)pyridazin-3-yl)acetamide]
